Measurements: publication PMC8071435, “Amorphous Solid Dispersion Tablets Overcome Acalabrutinib pH Effect in Dogs” (Pharmaceutics, 2021)
Where two headings read alike, the source gives them in different places. Marks after values point to notes of the source that are not given here.

What was measured:
[1] = Chemical stability: total impurities (total related substances) by RP-HPLC after storage; assay type: physicochemical; conditions: 40 °C/75% RH/open, perforated seal
Description: The ASD was stored at 40 °C/75% relative humidity (RH) to assess physical and chemical stability under accelerated storage conditions. Initial ASD samples and aged ASDs were analyzed for crystallinity using PXRD, thermal properties using mDSC, changes in morphology or presence of surface crystals using SEM, and chemical degradation by reverse-phase high-performance liquid chromatography (RP-HPLC). The ASD and ASD tablets were stored at ambient and refrigerated conditions to assess the chemical stability at nonaccelerated conditions. Initial and aged ASD samples were analyzed for total related substances using RP-HPLC. See Appendix A.3 for method details.
ASD and ASD tablet samples were analyzed for total related substances using RP-HPLC using a Waters XBridge C8 (150 × 3 mm, 3.5 µm pores) column (Waters Corporation, Milford, MO, USA) at a temperature of 40 °C. Mobile phase was pumped into the column at a flow rate of 0.7 mL/min using a gradient method. 10 mM ammonium acetate was used as mobile phase A and methanol was used as mobile phase B supplied according to the following sequence: 0 min: 20% B, 30 min: 70% B, 40 min: 70% B, 41 min: 20% B, […]. Samples were diluted with 8/2 (v/v) methanol/water and injection volume was 5 µL. The sample tray was held at uncontrolled room temperature. Analysis wavelength was 230 nm and 4 nm bandwidth.
The ASD was stored at 40 °C/75% relative humidity (RH) to assess physical and chemical stability when stored under accelerated conditions. Approximately 100 mg of ASD was placed in a single 4 mL glass vial, with enough glass vials prepared for each storage condition, timepoint and replicate. […] Initial ASD samples and aged ASDs were analyzed for crystallinity using SEM and PXRD, thermal properties using mDSC (in triplicate) and total related substances using RP-HPLC (duplicate analysis).
Additional ASD samples were stored at ambient and refrigerated conditions to assess the chemical stability upon storage at nonaccelerated conditions. […] Initial and aged ASD samples were analyzed for total related substances using RP-HPLC (duplicate analysis). […]

[2] = design: method as in PMID 31306750; conditions: cited from earlier work
[3] = design: method as in PMID 31306750; conditions: cited from earlier work; remark: listed apart in the source
[4] = design: method as in PMID 31306750; conditions: cited from earlier work; remark: listed apart in the source
[5] = system: CYP3A4; design: method as in PMID 31306750; conditions: humans; cited from earlier work
[6] = design: method as in PMID 31306750; conditions: humans; cited from earlier work

## CC#CC(=O)N1CCC[C@H]1c1nc(-c2ccc(C(=O)Nc3ccccn3)cc2)c2c(N)nccn12 [acalabrutinib]
[1]; 4 wk
  Total impurities after 4 wk: 0.70 ± 0.04 area%
[1]; 12 wk
  Total impurities after 12 wk: 0.94 ± 0.05 area%
[1]; initial (different ASD batch)
  Total impurities, initial: 0.59 ± 0.00 area%
[2]; higher basic pKa
  pKas in physiological range: 5.8
[2]; lower basic pKa
  pKas in physiological range: 3.5
[3]
  log P: 2.0 ^a
[4]
  Crystalline intrinsic solubility: 48 ^a µg/mL
[5]
  Fraction metabolized by CYP3A4 in the gut: approximately 50%
[6]
  Fraction metabolized by first-pass liver extraction: 50%
